Literature values in patent publication US20260216065A1, “PHARMACEUTICAL COMPOSITIONS FOR NASAL DELIVERY” (Therakind Limited, priority 2023, published 2026).

Conditions: room temperature (25° C.)

time for which nasal spray solutions are stable: 48 h
SMILES: Cc1nccn1CC1CCc2c(c3ccccc3n2C)C1=O (racemic) [ondansetron, (RS)-9-Methyl-3-[(2-methyl-1H-imidazol-1-yl)methyl]-2,3-dihydro-1H-carbazol-4(9H)-one]
